According to patent US9265268B2, “Method of handling bananas” (priority 2009, dated 2016):

What was measured:
Type in all cases: in vivo, Musa
bananas [1] = experiment: Example 2B: evaluation process B (3 days post-MCP); conditions: MAP-3 and MAP-10 groups (MAP bag, 300 or 1000 ppb 1-MCP); 3 days in bag at 14° C.
Excerpt: (§1) Bananas were harvested at 13 weeks of age. Fruit bunches were separated into hands, then washed, and excess latex was removed in chlorinated water tanks using standard commercial practices. The washed hands of bananas were further broken into clusters and treated with fungicide. Clusters were placed into plastic bags; each bag held approximately 1.4 kg (3 lbs) of bananas. The bananas remained in these bags until they were removed for evaluation (see below).
(§2) At day 5 at approximately 4 pm, the bananas had reached color stage 2.5 to 3.5. Treatment groups PE-3-C, PE-10-C, MAP-3, and MAP-10 were then exposed to 1-MCP overnight at the concentrations shown above.
This Example was the same as Example 2A, except that after exposure to 1-MCP, the bananas remained in their bags in the holding room at 14° C. for 3 days instead of 4 days.

bananas [2] = experiment: Example 2X: evaluation process X (extended storage at 14° C.); conditions: non-zero 1-MCP
Excerpt: as §1, §2
Some of the bananas from each group described in Example 2 were evaluated by process “X” as follows: After treatment groups PE-3-C, PE-10-C, MAP-3, and MAP-10 received exposure to 1-MCP, the bananas remained in their bags and were held at approximately 14° C. The bananas were inspected daily while they remained in the bags.

bananas [3] = experiment: Example US-3: comparison of production batches of MAP
Excerpt: Bananas were harvested and shipped to Ephrata, Pa. as described in Example US-1 above. Upon arrival, bananas were removed from poly liners and placed into one of three types of bags: • (1) T-bags (as described above) • (2) MAP bags type M (as described above) • (3) MAP bags type D (as described above). Bananas in bags were exposed to the ripening cycle described above, except that the first day (“day 0”) of the ripening cycle was omitted. The bananas that were exposed to 1-MCP received that exposure when they were at color stage 2 to 2.2.
Additionally, a group of bananas remained in their bags at 17.8° C. for 17 days after exposure to 1-MCP and were evaluated at the end of those 17 days.

bananas [4] = experiment: Example US-4: placement into MAP after exposure to 1-MCP; conditions: 1000 ppb, Day #8
Excerpt: Bananas were harvested and shipped to Ephrata, Pa. as in Example US-1 above. The bananas were also ripened as in Example US-1, except that the bananas remained in the bags in which they were shipped (poly liners) throughout the ripening process. Some of the poly liners were exposed to 1-MCP (1000 ppb) as in Example US-1 above, while others were not. Immediately after the conclusion of the exposure to 1-MCP, bananas were removed from the poly liners, divided into bunches. Some bunches had approximately of 1.4 kg (3 lb) and were placed into T-bags as described above. Other bunches were approximately 18 kg (40 lb) and were placed into MAP type D-40 as described above, using standard layering technique that interposes layers of the bag in between layers of bananas. Then the bananas were stored and evaluated as in Example US-1. Also, the bananas were eaten, and the firmness of the pulp was evaluated along with the overall quality of the eating experience.

bananas [5] = experiment: Example US-7a: various number of bananas per bag (appearance); set-up: scale not given here; conditions: 1,000 ppb 1-MCP, Day Number 7
Procedure: Bananas were handled and tested as in Example US-1, except that the number of bananas per bag was varied. Concentration of 1-MCP was 1,000 ppb. Also, two different types of MAP bags were used: type M and type D, as described above. Bananas were evaluated on day #7 after treatment with 1-MCP.

[6] = MAP with non-zero 1-MCP, 17 days in bags at 17.8° C., versus MAP without 1-MCP or T-bags with 1-MCP

Q: Which “color and sugar spots versus comparative examples” value (bananas [1]) does the source give for CC1=CC1 [1-MCP, 1-methylcyclopropene] here?
A: same type of improvements over the comparative examples as in Example 2A

Q: And the acceptability of bananas (bananas [2]; MAP bags, day number 17 after treatment, held at 14° C.)?
A: still acceptable

Q: And the “onset of sugar spots” value (bananas [2]; MAP bags, held in bags at 14° C.)?
A: showed a delay in the onset of sugar spots

Q: And the “additional time bananas remained acceptable after removal from MAP bags” value (bananas [2]; after 17 days at 14° C., stored at approx. 22° C.)?
A: three

Q: And the “development of sugar spots on holding at 17.8° C.” value (bananas [3]; MAP and non-zero 1-MCP)?
A: delayed the development of sugar spots

Q: What about the color-stage numbers (bananas [3]; [6]) of the same molecule?
A: lower color-stage numbers

Q: And the “number of sugar spots” value (bananas [3]; [6])?
A: lower number of sugar spots

Q: What about the Average color stage (bananas [4]; 1-MCP only (T-bag)) of the same molecule?
A: 4.71

Q: And the “Average sugar spot rating” value (bananas [4]; 1-MCP only (T-bag))?
A: 3

Q: What about the eating experience (bananas [4]; 1-MCP only (T-bag)) of the same molecule?
A: mediocre

Q: What about the pulp (bananas [4]; 1-MCP only (T-bag)) of the same molecule?
A: soft

Q: What about the Average color stage (bananas [4]; MAP (type D-40) and 1-MCP) of the same molecule?
A: 4.42

Q: What about the “Average sugar spot rating” value (bananas [4]; MAP (type D-40) and 1-MCP) of the same molecule?
A: 1

Q: And the eating experience (bananas [4]; MAP (type D-40) and 1-MCP)?
A: excellent

Q: What about the pulp (bananas [4]; MAP (type D-40) and 1-MCP) of the same molecule?
A: firm

Q: What about the “Color Stage” value (bananas [5]; MAP type D, 1 bananas per bag) of the same molecule?
A: 6.7

Q: What about the “Sugar Spots” value (bananas [5]; MAP type D, 1 bananas per bag) of the same molecule?
A: 0.7

Q: And the “Color Stage” value (bananas [5]; MAP type D, 2 bananas per bag)?
A: 5.5

Q: And the “Sugar Spots” value (bananas [5]; MAP type D, 2 bananas per bag)?
A: 1.0

Q: What about the “Color Stage” value (bananas [5]; MAP type D, 3 bananas per bag) of the same molecule?
A: 5.5

Q: What about the “Sugar Spots” value (bananas [5]; MAP type D, 3 bananas per bag) of the same molecule?
A: 0.3

Q: What about the “Color Stage” value (bananas [5]; MAP type D, 4 bananas per bag) of the same molecule?
A: 5.5

Q: And the “Sugar Spots” value (bananas [5]; MAP type D, 4 bananas per bag)?
A: 0.7

Q: What about the “Color Stage” value (bananas [5]; MAP type D, 5 bananas per bag) of the same molecule?
A: 4.8

Q: And the “Sugar Spots” value (bananas [5]; MAP type D, 5 bananas per bag)?
A: 1.3

Q: What about the “Color Stage” value (bananas [5]; MAP type D, 6 bananas per bag) of the same molecule?
A: 5.2

Q: And the “Sugar Spots” value (bananas [5]; MAP type D, 6 bananas per bag)?
A: 0.3

Q: What about the “Color Stage” value (bananas [5]; MAP type D, 7 bananas per bag) of the same molecule?
A: 4.8

Q: What about the “Sugar Spots” value (bananas [5]; MAP type D, 7 bananas per bag) of the same molecule?
A: 0.7

Q: And the “Color Stage” value (bananas [5]; MAP type D, 8 bananas per bag)?
A: 4.5

Q: And the “Sugar Spots” value (bananas [5]; MAP type D, 8 bananas per bag)?
A: 0.0

Q: What about the “Color Stage” value (bananas [5]; MAP type D, 9 bananas per bag) of the same molecule?
A: 4.5

Q: And the “Sugar Spots” value (bananas [5]; MAP type D, 9 bananas per bag)?
A: 0.7

Q: And the “Color Stage” value (bananas [5]; MAP type D, 10 bananas per bag)?
A: 4.5

Q: What about the “Sugar Spots” value (bananas [5]; MAP type D, 10 bananas per bag) of the same molecule?
A: 0.0

Q: What about the “Color Stage” value (bananas [5]; MAP type D, 11 bananas per bag) of the same molecule?
A: 4.3

Q: What about the “Sugar Spots” value (bananas [5]; MAP type D, 11 bananas per bag) of the same molecule?
A: 0.0

Q: What about the “Color Stage” value (bananas [5]; MAP type D, 12 bananas per bag) of the same molecule?
A: 4.5

Q: And the “Sugar Spots” value (bananas [5]; MAP type D, 12 bananas per bag)?
A: 0.0

Q: What about the “Color Stage” value (bananas [5]; MAP type M, 1 bananas per bag) of the same molecule?
A: 6.2

Q: And the “Sugar Spots” value (bananas [5]; MAP type M, 1 bananas per bag)?
A: 2.0

Q: And the “Color Stage” value (bananas [5]; MAP type M, 2 bananas per bag)?
A: 5.3

Q: And the “Sugar Spots” value (bananas [5]; MAP type M, 2 bananas per bag)?
A: 1.7

Q: And the “Color Stage” value (bananas [5]; MAP type M, 3 bananas per bag)?
A: 4.8

Q: What about the “Sugar Spots” value (bananas [5]; MAP type M, 3 bananas per bag) of the same molecule?
A: 2.0

Q: And the “Color Stage” value (bananas [5]; MAP type M, 4 bananas per bag)?
A: 5.3

Q: And the “Sugar Spots” value (bananas [5]; MAP type M, 4 bananas per bag)?
A: 1.0

Q: What about the “Color Stage” value (bananas [5]; MAP type M, 5 bananas per bag) of the same molecule?
A: 5.2

Q: And the “Sugar Spots” value (bananas [5]; MAP type M, 5 bananas per bag)?
A: 1.0

Q: What about the “Color Stage” value (bananas [5]; MAP type M, 6 bananas per bag) of the same molecule?
A: 4.8

Q: And the “Sugar Spots” value (bananas [5]; MAP type M, 6 bananas per bag)?
A: 1.0

Q: What about the “Color Stage” value (bananas [5]; MAP type M, 7 bananas per bag) of the same molecule?
A: 5.0

Q: What about the “Sugar Spots” value (bananas [5]; MAP type M, 7 bananas per bag) of the same molecule?
A: 0.0

Q: And the “Color Stage” value (bananas [5]; MAP type M, 8 bananas per bag)?
A: 4.5

Q: What about the “Sugar Spots” value (bananas [5]; MAP type M, 8 bananas per bag) of the same molecule?
A: 1.0

Q: What about the “Color Stage” value (bananas [5]; MAP type M, 9 bananas per bag) of the same molecule?
A: 4.5

Q: And the “Sugar Spots” value (bananas [5]; MAP type M, 9 bananas per bag)?
A: 0.7

Q: What about the “Color Stage” value (bananas [5]; MAP type M, 10 bananas per bag) of the same molecule?
A: 5.2

Q: And the “Sugar Spots” value (bananas [5]; MAP type M, 10 bananas per bag)?
A: 1.0

Q: What about the “Color Stage” value (bananas [5]; MAP type M, 11 bananas per bag) of the same molecule?
A: 4.5

Q: What about the “Sugar Spots” value (bananas [5]; MAP type M, 11 bananas per bag) of the same molecule?
A: 0.0

Q: What about the “Color Stage” value (bananas [5]; MAP type M, 12 bananas per bag) of the same molecule?
A: 4.5

Q: And the “Sugar Spots” value (bananas [5]; MAP type M, 12 bananas per bag)?
A: 0.0
